Series [1] is described as follows: Pheromone diffusion duration by SPME pre-concentration and GCMS, closed temperature-controlled chamber (Example 1). Conditions: pine processionary pheromone; paraffin oil core, 1% pheromone by weight. The class given is physicochemical. From the text: FIG. 1: This graph represents the abundance of the main compound of the non-encapsulated pheromone after preconcentration using the Solid Phase Micro-Extraction (SPME) technique, separation of the pheromone compounds by gas chromatography and detection by mass spectrometry (GCMS) in a closed temperature-controlled chamber. FIG. 2: This graph represents the abundance of the main compound of the encapsulated pheromone after preconcentration using the Solid Phase Micro-Extraction (SPME) technique, separation of the pheromone compounds by gas chromatography and detection by mass spectrometry (GCMS) in a closed temperature-controlled chamber. An analytical method was developed to detect the pheromone's main compound. The low quantities of analytes led to the choice of a pre-concentration method known as Solid Phase Micro-Extraction (SPME) and Gas Chromatography-Mass Spectrometry (GCMS).

Series [2] is described as follows: Closed system: study of thermodynamic equilibrium, SPME-GC/MS in sealed 20 mL flasks (Example 2). In kind it is physicochemical. The conditions noted are these: closed 20 mL flask; European grapevine moth pheromone. The method, then:
In order to establish the diffusion profiles of the samples at short times and to obtain initial information on any differences between the capsules, a study was carried out in a closed system. The experiment consists of introducing the samples into 20 mL hermetically sealed flasks and following the evolution of the quantity extracted by the SPME fibre over time, until equilibrium is reached. Measurements were initially taken over short periods (one measurement every 45 minutes, corresponding to the analysis time) and then, once the maximum concentration had been reached, measurements were taken at longer intervals to ensure that equilibrium had been reached (one measurement every 2.5 hours). These tests were carried out using the European grapevine moth pheromone, (E)-7-(Z)-9-dodecadienyl acetate (C14H24O2).

Where only a bound is given, the exact number is not on record here.

Consider `CC/C=C\C#CCCCCCCCCCCOC(C)=O` [Example 1 non-encapsulated pheromone, Z-13-hexadecen-11-yn-1-yl acetate], for which, in series [1], the “duration of the pheromone's diffusion” value is “less than 10 days”. Regarding `CC/C=C\C=C\CCCCCCOC(C)=O` [Example 2 non-encapsulated pheromone, (E)-7-(Z)-9-dodecadienyl acetate], the “time until equilibrium is reached” value in series [2] was > 50 h.
